Measurements from patent US20100041089A1, “IMPROVED METHOD FOR DETECTING CHEMICAL […]” (priority 2006, published 2010).

System: yeast genes (expressed mRNA)
Experiment: DNA chip measurement of expressed mRNA of yeast genes after culture with a toxic chemical substance
Type: cell-based, Saccharomyces cerevisiae S288C
Details: for level of expressed mRNA in the presence of chemical substance / level in the absence of chemical substance: cultured two hours with the chemical substance; for The level of expressed mRNA in the presence of chemical substance/The level of expressed mRNA in the absence of chemical substance: cultured two hours with substance
Method: Yeast (Saccharomyces cerevisiae S288C (a SUC2mal mel gap2 CUP1)) were cultured at 25° C. on YPD medium (yeast extract 1%, polypeptone 2%, glucose 2%). One of toxic chemical substances was added to the cell at logarithmic growth phase, and the cell was further cultured for two hours. Cell was cultured without any chemical substance in the same condition, and was used as a control. Concentrations of the chemical substances were defined to inhibit the growth of the yeast but not lead to death.
After the completion of cultivation, the culture was centrifuged to collect the cells. To the cells, sodium acetate buffer (50 mM sodium acetate, 10 mM EDTA, 1% SDS) was added, and the mixture was shaken at 65° C. for five minutes, followed by returning to room temperature, and obtaining the supernatant, which procedure was repeated two times. To the supernatant, ½ amount of a solution of phenol/chloroform (1:1) was added, and the mixture was centrifuged to give a supernatant, an equal amount of chloroform was added, and the mixture was centrifuged to give a supernatant. To the supernatant, an equal amount of isopropanol containing 0.3 M sodium acetate was added, and the mixture was allowed to stand at room temperature for 30 minutes, after which the mixture was centrifuged to give sediment of the whole RNAs. Seventy % ethanol was added to the sediment, and the mixture was again centrifuged to give sediment, which was then dried and dissolved in water. mRNA was isolated from the whole RNAs as followings. In view of the fact that a poly A chain is attached to the 3′ terminus of mRNA, a polynucleotide having a poly T structure which was immobilized on the surface of latex beads was used to trap the mRNA, and then the mRNA was washed and eluted with spine column (Oligotex-dT30<Super>mRNA Purification Kit, Takara). Reverse transcription of the mRNA was conducted with a reverse transcriptase (Super Script II Reverse Transcriptase; catalogue No. 18064-014, GibcoBRL) using fluorescence-labeled nucleotides to give cDNAs that were introduced with Cy3-dUTP or Cy5-dUTP during the reverse transcription.
The labeled cDNAs were dissolved in TE buffer (10 mM Tris-HCl/1 mM EDTA, pH 8.0), and the solution was dropped on the DNA chip containing the whole genes of yeast (DNA Chip Research Inc. Japan) so that the cDNAs were hybridized on the DNA chip at 65° C. for over 12 hours. The fluoresces intensity of the DNA chip was read with a scanner, and the ratio relative to the fluorescence intensity resulting from the absence of chemical substance was estimated as the following, which is shown in Tables 1 to 9.
In the Tables, “Intensity” indicated in the rightmost column is a value of the level of expressed mRNA of each gene in control cells as divided by the average level of the expressions of the whole genes. A gene of which mRNA level is lower in control, and is higher in cases of addition of chemical substance, is especially useful in the detection of toxic substances.
Here, when a ratio of an amount of mRNA expressed in the presence of the chemical substance to an amount of mRNA expressed in the absence of the chemical substance is two or more, then it is considered significant.

In the case of `[Cl][Cd][Cl]` [(2), CdCl2], the “level of expressed mRNA in the presence of chemical substance / level in the absence of chemical substance” value (yeast gene YNL058C) is reported as 1.0, the “level of expressed mRNA in the presence of chemical substance / level in the absence of chemical substance” value (yeast gene YNL063W) is reported as 1.9 and the “The level of expressed mRNA in the presence of chemical substance/The level of expressed mRNA in the absence of chemical substance” value (yeast gene YNL074C) is reported as 1.3. The “The level of expressed mRNA in the presence of chemical substance/The level of expressed mRNA in the absence of chemical substance” value (yeast gene YNL092W) was 1.4, the “The level of expressed mRNA in the presence of chemical substance/The level of expressed mRNA in the absence of chemical substance” value (yeast gene YNL115C) was 1.8 and the “The level of expressed mRNA in the presence of chemical substance/The level of expressed mRNA in the absence of chemical substance” value (yeast gene YNL156C) was 1.2. The “level of expressed mRNA in the presence of chemical substance / level in the absence of chemical substance” value (yeast gene YNL176C) was 1.3, the “level of expressed mRNA in the presence of chemical substance / level in the absence of chemical substance” value (yeast gene YNL194C) was 0.7 and the “level of expressed mRNA in the presence of chemical substance / level in the absence of chemical substance” value (yeast gene YNL200C) was 3.0. For the same compound, the “The level of expressed mRNA in the presence of chemical substance/The level of expressed mRNA in the absence of chemical substance” value (yeast gene YNL234W) was 1.1, the “level of expressed mRNA in the presence of chemical substance / level in the absence of chemical substance” value (yeast gene YNL253W) was 1.3 and the “level of expressed mRNA in the presence of chemical substance / level in the absence of chemical substance” value (yeast gene YNL276C) was 13.1. For the same compound, the “The level of expressed mRNA in the presence of chemical substance/The level of expressed mRNA in the absence of chemical substance” value (yeast gene YNL281W) was 1.3, the “The level of expressed mRNA in the presence of chemical substance/The level of expressed mRNA in the absence of chemical substance” value (yeast gene YNL305C) was 2.2 and the “level of expressed mRNA in the presence of chemical substance / level in the absence of chemical substance” value (yeast gene YNR051C) was 0.5. The “The level of expressed mRNA in the presence of chemical substance/The level of expressed mRNA in the absence of chemical substance” value (yeast gene YNR068C) was 1.5, the “level of expressed mRNA in the presence of chemical substance / level in the absence of chemical substance” value (yeast gene YOL026C) was 2.7 and the “The level of expressed mRNA in the presence of chemical substance/The level of expressed mRNA in the absence of chemical substance” value (yeast gene YOL032W) was 0.8. For the same compound, the “The level of expressed mRNA in the presence of chemical substance/The level of expressed mRNA in the absence of chemical substance” value (yeast gene YOL036W) was 0.9, the “The level of expressed mRNA in the presence of chemical substance/The level of expressed mRNA in the absence of chemical substance” value (yeast gene YOL047C) was 1.1 and the “The level of expressed mRNA in the presence of chemical substance/The level of expressed mRNA in the absence of chemical substance” value (yeast gene YOL071W) was 2.0. The “The level of expressed mRNA in the presence of chemical substance/The level of expressed mRNA in the absence of chemical substance” value (yeast gene YOL082W) was 1.6, the “The level of expressed mRNA in the presence of chemical substance/The level of expressed mRNA in the absence of chemical substance” value (yeast gene YOL083W) was 2.3 and the “The level of expressed mRNA in the presence of chemical substance/The level of expressed mRNA in the absence of chemical substance” value (yeast gene YOL117W) was 1.1. For the same compound, the “The level of expressed mRNA in the presence of chemical substance/The level of expressed mRNA in the absence of chemical substance” value (yeast gene YOL131W) was 1.5, the “The level of expressed mRNA in the presence of chemical substance/The level of expressed mRNA in the absence of chemical substance” value (yeast gene YOL150C) was 3.7 and the “The level of expressed mRNA in the presence of chemical substance/The level of expressed mRNA in the absence of chemical substance” value (yeast gene YOL162W) was 6.9. For the same compound, the “The level of expressed mRNA in the presence of chemical substance/The level of expressed mRNA in the absence of chemical substance” value (yeast gene YOR019W) was 1.2, the “level of expressed mRNA in the presence of chemical substance / level in the absence of chemical substance” value (yeast gene YOR022C) was 1.1 and the “level of expressed mRNA in the presence of chemical substance / level in the absence of chemical substance” value (yeast gene YOR087W) was 1.0. The “level of expressed mRNA in the presence of chemical substance / level in the absence of chemical substance” value (yeast gene YOR138C) was 1.5, the “The level of expressed mRNA in the presence of chemical substance/The level of expressed mRNA in the absence of chemical substance” value (yeast gene YOR197W) was 1.0 and the “level of expressed mRNA in the presence of chemical substance / level in the absence of chemical substance” value (yeast gene YOR253W) was 2.8. For the same compound, the “level of expressed mRNA in the presence of chemical substance / level in the absence of chemical substance” value (yeast gene YOR267C) was 0.7, the “level of expressed mRNA in the presence of chemical substance / level in the absence of chemical substance” value (yeast gene YOR325W) was 2.6 and the “level of expressed mRNA in the presence of chemical substance / level in the absence of chemical substance” value (yeast gene YPL005W) was 1.0. The “The level of expressed mRNA in the presence of chemical substance/The level of expressed mRNA in the absence of chemical substance” value (yeast gene YPL087W) was 5.1, the “level of expressed mRNA in the presence of chemical substance / level in the absence of chemical substance” value (yeast gene YPL150W) was 0.9 and the “level of expressed mRNA in the presence of chemical substance / level in the absence of chemical substance” value (yeast gene YPL152W) was 1.1. For the same compound, the “level of expressed mRNA in the presence of chemical substance / level in the absence of chemical substance” value (yeast gene YPL168W) was 1.5, the “level of expressed mRNA in the presence of chemical substance / level in the absence of chemical substance” value (yeast gene YPL180W) was 2.0 and the “level of expressed mRNA in the presence of chemical substance / level in the absence of chemical substance” value (yeast gene YPL188W) was 1.2. The “The level of expressed mRNA in the presence of chemical substance/The level of expressed mRNA in the absence of chemical substance” value (yeast gene YPL196W) was 1.6, the “The level of expressed mRNA in the presence of chemical substance/The level of expressed mRNA in the absence of chemical substance” value (yeast gene YPL206C) was 2.9 and the “level of expressed mRNA in the presence of chemical substance / level in the absence of chemical substance” value (yeast gene YPL221W) was 3.0. For the same compound, the “The level of expressed mRNA in the presence of chemical substance/The level of expressed mRNA in the absence of chemical substance” value (yeast gene YPL222W) was 3.5, the “level of expressed mRNA in the presence of chemical substance / level in the absence of chemical substance” value (yeast gene YPL225W) was 1.7 and the “The level of expressed mRNA in the presence of chemical substance/The level of expressed mRNA in the absence of chemical substance” value (yeast gene YPR023C) was 1.4. The “level of expressed mRNA in the presence of chemical substance / level in the absence of chemical substance” value (yeast gene YPR049C) was 2.5, the “level of expressed mRNA in the presence of chemical substance / level in the absence of chemical substance” value (yeast gene YPR146C) was 1.6 and the “level of expressed mRNA in the presence of chemical substance / level in the absence of chemical substance” value (yeast gene YPR148C) was 1.2. For the same compound, the “The level of expressed mRNA in the presence of chemical substance/The level of expressed mRNA in the absence of chemical substance” value (yeast gene YPR151C) was 2.0 and the “level of expressed mRNA in the presence of chemical substance / level in the absence of chemical substance” value (yeast gene YPR172W) was 1.6.
